From patent US4997818A, “Therapeutic method for selectively treating terminal deoxynucleotidyl transferase-positive neoplastic leukemias and lymphomas” (The University Hospital, priority 1989, dated 1991) come the findings set out here.

Assay [1] deals with T1, terminal deoxynucleotidyl transferase (TdT) (Bos taurus, UniProt P06526).
T1 construct: purchased DuPont/NEN Products, Boston, Massachusetts; host or cells: calf thymus
Nature of the assay: TdT enzyme assay (3H-dGTP incorporation). The class given is biochemical, calf. On the procedure:
(§1) Initially, the effect of various ddNTPs on TdT and DNA polymerase alpha was evaluated. DNA polymerase alpha, purified from calf thymus according to Kornberg [DNA Replication, W.H. Freeman and Company, 1980, p 206]and Wahl et al. [Biochemistry 23:1895 (1984)] was purchased from Pharmacia, Inc. (Piscataway, N.J.). TdT, purified from calf thymus, was purchased from DuPont/NEN Products, Boston, Massachusetts). Enzyme assays were conducted at 37 C. under conditions established to be optimal for each assay. For DNA polymeraseα, 0.1 ml of reaction mixture contained: 0.05 M tris-HCl (pH 8.3); 4 mM dithiothreitol; 4 mM MgCl; 10 ug poly(dAT); 0.05 mM ^3 H-dATP; 0.05 mM dTTP; and 0.05 units of enzyme. For TdT assays, 0.1 ml of standard reaction mixture contained: 0.05 M tris-HCl (pH 8.3); 2 mM dithiothreitol; 0.6 mM MnCl; 20 ug oligo(dA) 50; 0.1 mM ^3 H-dGTP; and 0.5 units of TdT.
For these studies, ddNTPs were dissolved in deionized distilled water and added to the respective reaction mixtures at time zero to give the effective final concentrations. The degree of reaction or inhibition was calculated from simultaneous control reactions. The mode of inhibition and inhibition constants were determined using Linweaver-Burke and Dixon plots. Each of the respective reactions was stopped using 0.5 ml of cold (4 C) 0.1 M sodium pyrophosphate containing 1 mg/ml yeast RNA (hereinafter"NaPP") and precipitated with 0.5 ml of cold 25% trichloroacetic acid (hereinafter "TCA"). The precipitates centrifuged at 13,000×gravity in a microfuge for one minute; resolubilized in 0.2 ml of 0.3M NaOH; and then reprecipitated with NaPP and TCA. Following a second 0.3 M NaOH resolubilization, 10 ml of scintiverse II (Fisher Scientific Company, Fairlawn, N.J.) was added to each sample for counting in a Beckman LS3700 liquid scintillation counter.
(§2) It should be noted also that for certain TdT assays, a variety of different initiators were used in place of oligo (dA) 50. These included: activated DNA; 5'-^32 T-GTCCGTCTCTGCCTC-3' (15 MER synthesized on an automated synthesizer using standard phosphoramidite chemistry having a ^32 P-end labeled by a standard Maxam-Gilbert reaction); YEP-FG-2-plasmid DNA; oligo (dC) 18; oligo (dT) 18; and various ^3 H-substrates such as dCTP, dATP, and dTTP in place of ^3 H-dGTP. Reactions utilizing the 15 MER initiator contained either 5 mM MgCl2 or 1 mM CoCl2 in place of MnCl2.

The subject of assay [2] is fresh leukemia cell cultures. Nature of the assay: Ex-vivo viability of fresh leukemia cells from patients (trypan blue). The class given is cell-based, human. The conditions noted are these: 30 uM CF alone, two instances. From the text:
Leukemic blast cells from bone marrow or peripheral blood were obtained from 12 patients; of these, six persons were diagnosed as afflicted with acute lymphatic leukemia; three persons were diagnosed as afflicted with acute myeloblastic leukemia; two persons were diagnosed as afflicted with blastic chronic myelogenous leukemia; and one person was diagnosed as having acute myelogenous leukemia, complicating multiple myeloma. These diagnoses were based upon standard clinical and laboratory criteria. In ten of these twelve patients, blast cells constituted more than 75% of the mononuclear cells. In the eleventh and twelfth patients, 32% and 42% of the mononuclear cells were blast cells.
The leukemic cells from each person were enriched on Ficoll-Hypaque medium; washed in phosphate-buffered saline without divalent cations; resuspended in RPMI-1640 medium containing 20% FCS; and then grown in RPMI-1640 media supplemented with 10% FCS. The TdT status of each cell sample was independently determined by conventional biochemical assay before culturing. […] The six TdT-positive cases all had acute lymphoblastic leukemia.
Experimentally, all twelve fresh leukemia cell cultures were continuously exposed ex-vivo to 250 uM of ddA and 30 uM of CF for 72 hours. Each was then individually evaluated for viability as determined by trytan blue staining. The empirical results are illustrated by FIG. 6. […]

The subject of a further assay is 298-26. Nature of the assay: Growth inhibition, viable cell count by trypan blue exclusion. The class given is cell-based, Murine. Conditions: Mus musculus; 298-26, TdT positive, 48 hour continuous exposure. The method, then: (§3) Each cell line was utilized in exponential growth phase. For test purposes, cells were seeded at […] cells/ml in T25 flasks containing 4 ml of culture medium. Cell counts were made using a hemocytometer. Cell viability was determined using the tryptan blue dye exclusion method. The degree of growth inhibition was calculated by comparison with untreated controls.
(§4) Initially, the effect of a 48 hour continuous exposure to 250 uM and 500 uM of ddA upon four TdT-positive and three TdT-negative cell lines was evaluated.
(§5) The growth inhibition data of Table V is defined as the ratio of viable cells in the ddA exposed cultures in comparison to control cultures. Each determination reflects the mean of triplicate flasks. It is noted that at 250 uM of ddA, there was marked growth inhibition (30-80%) in all four TdT-positive cell lines whereas there was very little effect among the TdT-negative cells (0-15% growth inhibition). At 500 uM of ddA, the cytotoxicity in the TdT-positive lines was further increased (92-99% growth inhibition). At this concentration level, 2 of the 3 TdT-negative lines also show measureable growth inhibition (40-50%).
(§6) As a result, another series of experiments was conducted in which the non-selective purinogenic cytotoxicity was reduced. […]

The subject of a further assay is ML3. The assay is described as above. The class given is cell-based. The conditions noted are these: Homo sapiens; ML3, TdT negative, 48 hour continuous exposure. On the procedure: as §3, §4, §5
(§7) As a result, another series of experiments was conducted in which the non-selective purinogenic cytotoxicity was reduced. In this experimental series, a variety of different cell lines were pre-incubated for 30 minutes with the adenosine deaminase inhibitor, coformycin (CF). This CF exposure was then followed by a continuous 48 hour exposure to 250 uM ddA with suitable controls. Growth inhibition was defined as the ratio of viable cells in the CF/ddA exposed cell cultures in comparison to control cultures. Each determination reflects the mean of quadruplicate flasks. The results are provided by FIG. 3 and Table VI respectively.

The next assay has as its system HPB-ALL. The assay is described as above. The class given is cell-based. The conditions noted are these: Homo sapiens, HPBALL, TdT positive, 48 hour continuous exposure. On the procedure: as §3, §4, §5, §7
For the next assay, the system named is NALM-6. Described as above. The class given is cell-based. The conditions noted are these: Homo sapiens; NALM-6, TdT positive, 48 hour continuous exposure. On the procedure: as §3, §4, §5, §7
The next assay deals with MOLT-4. The description is as above. The class given is cell-based. The conditions noted are these: Homo sapiens; MOLT-4, TdT positive, 48 hour continuous exposure. On the procedure:
as §3, §4, §5, §7

For the next assay, the system named is 8392. The assay is described as above. Conditions: Homo sapiens; 8392, TdT negative, 48 hour continuous exposure. The class given is cell-based. On the procedure:
as §3, §4, §5, §7

The next assay concerns L1210. The assay is described as above. The class given is cell-based. Conditions: Mus musculus; L1210, TdT negative, 48 hour continuous exposure. The method, then:
as §3, §4, §5

A further assay relates to TdT-negative cell lines. Nature of the assay: Growth inhibition, summary over TdT-negative cell lines. The class given is cell-based. Conditions: 48 hour. The method, then:
as §3, §4, §5

The next assay deals with TdT-positive cell lines. Nature of the assay: Growth inhibition, summary over TdT-positive cell lines. The class given is cell-based. Conditions: 48 hour. On the procedure:
as §3, §4, §5, §6

For assay [3], the target named is T1, terminal deoxynucleotidyl transferase (TdT). Nature of the assay: TdT-catalyzed polymerization on 32P-labelled 15 MER initiator, autoradiograph (chain termination). The class given is biochemical, calf. Conditions: ddATP as substrate, MgCl2 or CoCl2.
Source text: as §2
It should be noted that the mechanism of inhibition by any of the ddNTPs upon TdT catalysis is by chain termination. […] A radiolabelled oligomer (^32 P-GTCCGTCTCTGCCTC-3') shown in Lane 1 was used as an initiator for TdT-catalyzed polymerization using: dATP (Lanes 2 and 4); or ddATP (Lanes 3 and 5 ) as substrates. Lanes 2 and 3 represent the reaction products generated in the presence of MgCl2 while Lanes 4 and 5 represent the reaction products generated in the presence of CoCl2 respectively. Each reaction product was electrophoresed on a 20% polyacrylamide gel under denaturing conditions (2.5 hours at 35 watts, 2800 volts). […] Thus, the effectiveness of chain termination by ddATP is clearly established.

The subject of the next assay is DNA polymerase alpha. Nature of the assay: DNA polymerase alpha enzyme assay. The class given is biochemical, calf. The method, then: as §1
For these studies, ddNTPs were dissolved in deionized distilled water and added to the respective reaction mixtures at time zero to give the effective final concentrations. The degree of reaction or inhibition was calculated from simultaneous control reactions. The mode of inhibition and inhibition constants were determined using Linweaver-Burke and Dixon plots. […]

T1 sequence (P06526 whole entry): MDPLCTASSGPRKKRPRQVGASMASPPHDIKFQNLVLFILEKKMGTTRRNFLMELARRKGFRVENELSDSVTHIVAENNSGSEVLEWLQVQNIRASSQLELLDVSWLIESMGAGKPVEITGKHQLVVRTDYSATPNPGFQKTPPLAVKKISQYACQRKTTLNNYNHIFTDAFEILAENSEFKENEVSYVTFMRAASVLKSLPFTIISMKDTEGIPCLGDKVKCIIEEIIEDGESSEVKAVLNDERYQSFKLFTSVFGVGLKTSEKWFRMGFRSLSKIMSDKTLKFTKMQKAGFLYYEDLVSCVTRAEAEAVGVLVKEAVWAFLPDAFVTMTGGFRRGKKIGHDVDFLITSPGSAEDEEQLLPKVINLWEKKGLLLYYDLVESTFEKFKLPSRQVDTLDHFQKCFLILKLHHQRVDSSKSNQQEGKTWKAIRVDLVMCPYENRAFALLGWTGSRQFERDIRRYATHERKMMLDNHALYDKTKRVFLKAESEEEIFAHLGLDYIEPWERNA

On to `Cc1cn([C@H]2C[C@H](N=[N+]=[N-])[C@@H](CO[P@](=O)(O)O[P@](=O)(O)OP(=O)(O)O)O2)c(=O)[nH]c1=O` [AZTTP, 3'-azido thymidine triphosphate, reference compound], for which 133 µM corresponded to half-maximal inhibition in assay [1] (IC50).

For the compound `OC[C@H]1O[C@@H](n2cnc3c2N=CNC[C@H]3O)[C@H](O)[C@@H]1O` [CF, coformycin], the “effect on cell viability” value in [2] is listed as “no effect”.

Take `Nc1ncnc2c1ncn2[C@H]1CC[C@@H](CO)O1` [ddA, dideoxyadenosine]: the inhibition at 250 µM in the assay on 298-26 stood at 80%; in the assay with ML3, 0%; in the assay on HPB-ALL it was 40%; in the assay with NALM-6, 30%; in the assay with MOLT-4, 60%; in the assay on 8392, 0%. In addition, the inhibition at 250 µM is 15% with L1210; 0 to 15% in the assay on TdT-negative cell lines (250 uM ddA, read-out: growth inhibition, range over TdT-negative cells); 30 to 80% in the assay on TdT-positive cell lines (250 uM ddA, read-out: growth inhibition, range over all four TdT-positive cell lines). Also, the inhibition at 500 µM was found to be 99% with 298-26; 40% in the assay on ML3; 99% with HPB-ALL; 95% in the assay on NALM-6; 92% in the assay with MOLT-4; 0% in the assay with 8392. Further, the inhibition at 500 µM with L1210 is 50%; with TdT-negative cell lines (500 uM ddA, read-out: growth inhibition, 2 of the 3 TdT-negative lines), 40 to 50%; in the assay with TdT-positive cell lines (500 uM ddA, read-out: growth inhibition, range over TdT-positive lines) it was 92 to 99%.

In the case of `Nc1ncnc2c1ncn2[C@H]1CC[C@@H](COP(=O)(O)OP(=O)(O)OP(=O)(O)O)O1` [ddATP, 2',3'-dideoxyadenosine triphosphate], the “chain termination: residues added by TdT to 15 MER initiator (FIG. 2)” value in [3] is recorded as “only one residue is added”. Also, the “effect on DNA polymerase alpha enzyme activity (FIG. 1)” value with DNA polymerase alpha was “does not recognize”. In [1], the IC50 turned out to be 9 µM. The “effect on TdT polymerization reaction (FIG. 1)” value in assay [1] (micromolar concentrations of ddATP) is “dramatically inhibits”.

With `Nc1ccn([C@H]2CC[C@@H](COP(=O)(O)OP(=O)(O)OP(=O)(O)O)O2)c(=O)n1` [ddCTP, dideoxycytosine triphosphate], the midpoint of inhibition in assay [1], the IC50, lay at 24.8 µM.

In turn, `Nc1nc2c(ncn2[C@H]2CC[C@@H](COP(=O)(O)OP(=O)(O)OP(=O)(O)O)O2)c(=O)[nH]1` [ddGTP, dideoxyguanosine triphosphate] showed an IC50 in assay [1] of 18 µM.

Consider `O=c1[nH]cnc2c1ncn2[C@H]1CC[C@@H](COP(=O)(O)OP(=O)(O)OP(=O)(O)O)O1` [ddITP, dideoxyinosine triphosphate], for which the IC50 in [1] came out at 20 µM.

`Cc1cn([C@H]2CC[C@@H](COP(=O)(O)OP(=O)(O)OP(=O)(O)O)O2)c(=O)[nH]c1=O` [ddTTP, 2',3'-dideoxythymidine triphosphate] showed an IC50 in assay [1] of 47.2 µM.
